Measured values reported in patent US20240246979A1, “cGAS INHIBITORS” (Eli Lilly and Company, priority 2022, published 2024).

Columns and labels:
[1] = target: T1, cGAS (Homo sapiens, UniProt Q8N884); assay: Cellular assay to measure cGAS activity (IFNb AlphaLISA in THP1 cells stimulated by RDG-Adenovirus-GFP); type: cell-based; set-up: host or cells: THP1 cells differentiated with PMA and stimulated with RDG-Adenovirus-GFP; settings: PMA-differentiated THP1 cells, RDG-Adenovirus-GFP at 1000 MOI; inhibition of IFNb production as marker for cGAS activity
Description: Cellular assay to measure cGAS activity: Use THP1 cell line from ATCC to determine inhibition of cGAS activity by test compounds in human cells. Plate cells on 96-well plates at 0.2×10^6/well and differentiate with phorbol myristate acetate (PMA) at 37° C./5% CO2. After 24 hours, replace PMA containing media with media lacking PMA and further incubate overnight. Stimulate cells were then by RDG-Adenovirus-GFP (Vector Biolabs #1768) at 1000 MOI for 4 hours prior to the addition of test compounds. After overnight incubation, transfer 10 μL of the media from each well to a new plate for IFNb analysis as a marker for cGAS activity. Measure quantification of IFNb with an IFNb AlphaLISA Detection kit (Perkin Elmer AL3133F) by mixing the acceptor beads with the cell supernatant followed by the addition of the biotinylated antibody and donor beads. Measure the relative fluorescence signal produced from the interaction of the donor and acceptor beads by a PHERAStar AlphaLISA protocol and evaluate the inhibitory effect of a compound by plotting specific inhibition of IFNb production against log concentration of the test compound. Calculate IC50 values using a 4-parameter non-linear logistic equation (y=(S0+((SInf−S0)/(1+((qAC50/x)^nHill))))).

[2] = target: T1, cGAS; assay: In vitro inhibition assay of cGAS activity (cGAMP production, RapidFire mass spectrometry); type: biochemical; set-up: Insert cDNA encoding full-length of human cGAS; His6; made in house; host or cells: E. coli BL21(DE3); settings: 10 nM recombinant human cGAS, 60 nM 75-bp dsDNA, 50 μM ATP, 50 μM GTP, 3 hrs
Description: Expression and Purification of Recombinant cGAS Protein: Insert cDNA encoding full-length of human cGAS into a modified bacterial expression vector containing an in-frame His6-tag. Induce the E. coli strain BL21(DE3) harboring the plasmid with 1 mM IPTG (Isopropyl β-D-1-thiogalactopyranoside) at 18° C. overnight. Purify the His6-tagged cGAS protein over HISpur Ni-NTA resin in the presence of benzonase and RNase followed by Superdex 200 size exclusion chromatography with storage buffer (50 mM Tris-HCl pH 7.5, 300 mM NaCl, 1 mM DTT, 10% glycerol).
In vitro inhibition assay of cGAS activity: Add a 5 μL mixture containing 10 mM Tris-Cl pH 7.5, 50 mM NaCl, 5 mM MgCl2, 1 mM DTT, 0.01% Triton X-100, 60 nM 75-bp dsDNA, 50 μM ATP, 50 μM GTP, 10 nM of recombinant human cGAS, and serial dilutions of a test compound in DMSO to a 384-well plate and incubate at ambient temperature for 3 hrs. Quench the reaction by the addition of 100 μL of stop solution containing 0.1% formic acid and 0.1 μM internal standard (3′3′-difluoro cGAMP). Measure the amount of cGAMP produced by RapidFire 365 mass spectrometry and evaluate inhibitory effect of a compound by plotting percent specific inhibition of cGAMP production against log concentration of the test compound. Calculate IC50 values using a 4-parameter non-linear logistic equation (y=(S0+((Sinf−S0)/(1+((qAC50/x)^nHill))))).

T1 sequence (Q8N884 whole entry): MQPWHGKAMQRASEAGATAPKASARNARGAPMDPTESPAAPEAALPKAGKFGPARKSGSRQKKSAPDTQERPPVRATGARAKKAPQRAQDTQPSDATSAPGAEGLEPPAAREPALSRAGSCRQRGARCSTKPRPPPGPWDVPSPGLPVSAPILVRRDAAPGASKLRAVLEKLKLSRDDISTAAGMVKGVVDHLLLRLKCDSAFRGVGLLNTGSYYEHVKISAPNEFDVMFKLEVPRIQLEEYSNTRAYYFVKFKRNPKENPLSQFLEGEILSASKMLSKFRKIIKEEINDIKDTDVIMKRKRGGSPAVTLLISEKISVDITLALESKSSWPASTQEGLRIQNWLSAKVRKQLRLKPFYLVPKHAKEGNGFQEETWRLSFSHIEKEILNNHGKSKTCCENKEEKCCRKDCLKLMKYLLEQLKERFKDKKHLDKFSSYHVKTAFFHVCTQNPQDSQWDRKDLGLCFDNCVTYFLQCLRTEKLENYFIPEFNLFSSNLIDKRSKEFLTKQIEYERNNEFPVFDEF

Row | Structure (SMILES) | IC50 [1] [µM] | IC50 [2] [µM]
1 | C[C@@H]1C(=O)NCCc2[nH]c3c(Cl)c(Cl)cc(N[C@H]4CCOC4)c3c21 (single isomer, unassigned) [Example 62] | 1.9 | 0.0445
2 | C[C@@H]1C(=O)NCCc2[nH]c3c(Cl)c(Cl)cc(N[C@H]4CCOC4)c3c21 (single isomer, unassigned) [Example 63] | > 10 | 1.67
3 | C[C@H]1C(=O)NCCc2[nH]c3c(Cl)c(Cl)cc(N[C@@H]4CCOC4)c3c21 (single isomer, unassigned) [Example 64] | 2.42 | 0.0379
4 | C[C@H]1C(=O)NCCc2[nH]c3c(Cl)c(Cl)cc(N[C@@H]4CCOC4)c3c21 (single isomer, unassigned) [Example 65] | ≥ 10 | 0.89
5 | C[C@H]1C(=O)NCCc2[nH]c3c(Cl)c(Cl)cc(CC#N)c3c21 (single isomer, unassigned) [Example 89] | 1.13 | 0.02
6 | C[C@H]1C(=O)NCCc2[nH]c3c(Cl)c(Cl)cc(CC#N)c3c21 (single isomer, unassigned) [Example 90] | 0.993 | 0.552
7 | Cn1ncc(-c2cc(Cl)c(Cl)c3[nH]c4c(c23)CC(=O)NC[C@H]4CC(C)(C)O)n1 (single isomer, unassigned) [Example 103] | 0.398 | 0.0176
8 | Cn1ncc(-c2cc(Cl)c(Cl)c3[nH]c4c(c23)CC(=O)NC[C@H]4CC(C)(C)O)n1 (single isomer, unassigned) [Example 104] | 1.57 | 0.0422
9 | CC(C)(O)C[C@@H]1CNC(=O)Cc2c1[nH]c1c(Cl)c(Cl)cc(CC#N)c21 (single isomer, unassigned) [Example 106] | 0.861 | 0.188
10 | CC(C)(O)C[C@@H]1CNC(=O)Cc2c1[nH]c1c(Cl)c(Cl)cc(CC#N)c21 (single isomer, unassigned) [Example 107] | 0.649 | 0.0125
11 | CC(C)(O)C[C@@H]1CNC(=O)Cc2c1[nH]c1c(Cl)c(Cl)cc(OCC#N)c21 (single isomer, unassigned) [Example 108] | 0.676 | 0.0257
12 | CC(C)(O)C[C@@H]1CNC(=O)Cc2c1[nH]c1c(Cl)c(Cl)cc(OCC#N)c21 (single isomer, unassigned) [Example 109] | 1.86 | 0.159
13 | Cn1c2c(c3c(OCC#N)cc(Cl)c(Cl)c31)CC(=O)NC[C@H]2CC(C)(C)O (single isomer, unassigned) [Example 110, (R)-2-((7,8-Dichloro-5-(2-hydroxy-2-methylpropyl)-6-methyl-2-oxo-1,2,3,4,5,6-hexahydroazepino[4,5-b]indol-10-yl)oxy)acetonitrile or (S)-2-((7,8-Dichloro-5-(2-hydroxy-2-methylpropyl)-6-methyl-2-oxo-1,2,3,4,5,6-hexahydroazepino[4,5-b]indol-10-yl)oxy)acetonitrile] | 3.12 | 2.61
14 | Cn1c2c(c3c(OCC#N)cc(Cl)c(Cl)c31)CC(=O)NC[C@H]2CC(C)(C)O (single isomer, unassigned) [Example 111, (R)-2-((7,8-Dichloro-5-(2-hydroxy-2-methylpropyl)-6-methyl-2-oxo-1,2,3,4,5,6-hexahydroazepino[4,5-b]indol-10-yl)oxy)acetonitrile or (S)-2-((7,8-Dichloro-5-(2-hydroxy-2-methylpropyl)-6-methyl-2-oxo-1,2,3,4,5,6-hexahydroazepino[4,5-b]indol-10-yl)oxy)acetonitrile] | 0.231 | 0.0131

Results, then the compound that gave them:

Row | IC50 [1] [µM] | IC50 [2] [µM] | Structure (SMILES)
15 | 6.23 | 3.56 | C[C@@H](O)CNc1cc(Cl)c(Cl)c2[nH]c3c(c12)[C@@H](C)C(=O)NCC3 (single isomer, unassigned) [Example 56]
16 | 0.49 | 0.00844 | C[C@H]1C(=O)NCCc2[nH]c3c(Cl)c(Cl)cc(NCC(F)(F)CO)c3c21 (single isomer, unassigned) [Example 68, (R)-7,8-Dichloro-10-((2,2-difluoro-3-hydroxypropyl)amino)-1-methyl-3,4,5,6-tetrahydroazepino[4,5-b]indol-2(1H)-one or (S)-7,8-Dichloro-10-((2,2-difluoro-3-hydroxypropyl)amino)-1-methyl-3,4,5,6-tetrahydroazepino[4,5-b]indol-2(1H)-one]
17 | > 10 | 0.63 | C[C@H]1C(=O)NCCc2[nH]c3c(Cl)c(Cl)cc(NCC(F)(F)CO)c3c21 (single isomer, unassigned) [Example 69, (R)-7,8-Dichloro-10-((2,2-difluoro-3-hydroxypropyl)amino)-1-methyl-3,4,5,6-tetrahydroazepino[4,5-b]indol-2(1H)-one or (S)-7,8-Dichloro-10-((2,2-difluoro-3-hydroxypropyl)amino)-1-methyl-3,4,5,6-tetrahydroazepino[4,5-b]indol-2(1H)-one]
18 | 0.755 | 0.0112 | C[C@@H]1C(=O)NCCc2[nH]c3c(Cl)c(Cl)cc(OCC(F)(F)CO)c3c21 (single isomer, unassigned) [Example 73]
19 | > 10 | 3.44 | C[C@@H]1C(=O)NCCc2[nH]c3c(Cl)c(Cl)cc(OCC(F)(F)CO)c3c21 (single isomer, unassigned) [Example 74]
20 | 0.28 | 0.00812 | COCCOc1cc(Cl)c(Cl)c2[nH]c3c(c12)[C@H](C)C(=O)NCC3 (single isomer, unassigned) [Example 80]
21 | 7.06 | 1.2 | COCCOc1cc(Cl)c(Cl)c2[nH]c3c(c12)[C@H](C)C(=O)NCC3 (single isomer, unassigned) [Example 81]
22 | 0.91 | 0.0325 | C[C@@H]1C(=O)NCCc2[nH]c3c(Cl)c(Cl)cc(OC[C@@H](C)O)c3c21 (single isomer, unassigned) [Example 82]
23 | > 10 | 4.74 | C[C@@H]1C(=O)NCCc2[nH]c3c(Cl)c(Cl)cc(OC[C@@H](C)O)c3c21 (single isomer, unassigned) [Example 83]
24 | 1.43 | 0.0442 | C[C@H](O)COc1cc(Cl)c(Cl)c2[nH]c3c(c12)[C@H](C)C(=O)NCC3 (single isomer, unassigned) [Example 84]
25 | 7.26 | 2.77 | C[C@H](O)COc1cc(Cl)c(Cl)c2[nH]c3c(c12)[C@H](C)C(=O)NCC3 (single isomer, unassigned) [Example 85]
26 | 0.259 | 0.0173 | C[C@@H]1C(=O)NCCc2c1c1c(NC(=O)CO)cc(Cl)c(Cl)c1n2C (single isomer, unassigned) [Example 92]
27 | > 10 | 2.76 | C[C@@H]1C(=O)NCCc2c1c1c(NC(=O)CO)cc(Cl)c(Cl)c1n2C (single isomer, unassigned) [Example 93]
28 | 0.663 | 0.0247 | C[C@H](O)C(=O)Nc1cc(Cl)c(Cl)c2c1c1c(n2C)CCNC(=O)[C@H]1C (single isomer, unassigned) [Example 94]
29 | ≥ 10 | 7.58 | C[C@H](O)C(=O)Nc1cc(Cl)c(Cl)c2c1c1c(n2C)CCNC(=O)[C@H]1C (single isomer, unassigned) [Example 95]
30 | 2.18 | 0.0424 | C[C@@H](O)CNc1cc(Cl)c(Cl)c2c1c1c(n2C)CCNC(=O)[C@@H]1C (single isomer, unassigned) [Example 98]
31 | > 10 | 1.64 | C[C@@H](O)CNc1cc(Cl)c(Cl)c2c1c1c(n2C)CCNC(=O)[C@@H]1C (single isomer, unassigned) [Example 99]
32 | 1.13 | 0.0304 | C[C@@H](O)CNc1cc(Cl)c(Cl)c2c1c1c(n2C)CCNC(=O)[C@@H]1C (single isomer, unassigned) [Example 100]
33 | > 10 | 1.26 | C[C@@H](O)CNc1cc(Cl)c(Cl)c2c1c1c(n2C)CCNC(=O)[C@@H]1C (single isomer, unassigned) [Example 101]
